Experimental data published in US20070270403A1 (priority 2003, published 2007).

Experiments:
5-HT release in NAcc = test: In vivo microvoltammetry, 5-HT release in NAcc (clozapine studies); set-up: species or system Sprague-Dawley Rattus Norvegicus
Protocol: (§1) There is an increasing awareness that a psychosis, similar to that of schizophrenic psychosis, can be derived from cocaine addiction. […] Release mechanisms for monoamines, were determined by using a depolarization blocker, gamma-butyrolactone (γBL). […] Acute and Subacute studies were performed for each treatment group.
(§2) The stereotaxic equipment was purchased from David Kopf Instruments, Tujunga, Calif. A Ag/AgCl reference electrode was placed in contact with dura, 7 mm anteriorally and contralaterally to the indicator microelectrode. A stainless steel auxiliary microelectrode was placed in contact with dura. BRODERICK PROBE® microelectrodes were manufactured on site.
(§3) In vivo microvoltammetric studies on conscious Sprague-Dawley laboratory rats were begun nine to fifteen days after the aseptic surgical operations were performed. On each experimental day, the animal was placed in a Plexiglas-copper faradaic chamber. The three-microelectrode assembly, enclosed within the animal's prosthetic acrylic cap, was connected to a CV37 detector by means of a mercury commutator (Br. Res. Instr., Princeton, N.J.), a flexible cable, and a mating connector (BJM Electronics, Staten Island, N.Y.). The CV37 detector was electrically connected to a Minigard surge suppresser (Jefferson Electric, Magnetek, N.Y.) which was then connected to an electrical ground in isolation. […] Each animal was used as its own control. Changes in synaptic concentrations of DA and 5-HT are presented as percent change (% of control) in order to minimize normal between-animal variations. […] In vivo microvoltammetric scans were recorded in sec and repeated every five min for a period of 2 hrs before each treatment and a period of two hrs after each treatment.
(§4) Potentials were applied with a CV37 detector (BAS, West Lafayette, Ind.). Potentials were applied from −0.2V to +0.4V with respect to a Ag/AgCl (1M NaCl) electrode, at a scan rate of 10 mV/sec at time constants of 5 and 1 tau. One scan was completed in 60 sec. Non-faradaic charging current was eliminated in the first 25 sec.
(§5) Calibration curves were determined experimentally, in vitro, in a freshly prepared deoxygenated physiological saline-phosphate buffer solution (0.01 M, pH=7.4). We use ultra pure Nitrogen (N2) (T. W. Smith Corp., Bklyn, N.Y.) to deoxygenate the buffer solution. […] Calibration studies were also performed in freshly prepared deoxygenated buffer solutions containing phosphotidylethanolamine (PEA), combined with bovine serum albumin (BSA) (Sigma Aldrich, St. Louis, Mo.), a solution which closely mimics brain constituents. […] Detection limits for basal synaptic concentrations of DA and 5-HT in NAcc were 12 nM and 2 nM respectively.

DA release in NAcc = test: In vivo microvoltammetry, DA release in NAcc (clozapine studies); set-up: species or system Sprague-Dawley Rattus Norvegicus; details: Subacute, cocaine 10 mg/kg i.p. on Day 1, hr period of study
Protocol: as §1, §2, §3, §4, §5

In the case of COC(=O)[C@H]1[C@@H](OC(=O)c2ccccc2)C[C@@H]2CC[C@H]1N2C [Cocaine, cocaine], the “Maximum decrease in 5-HT below baseline, Subacute” value (5-HT release in NAcc; 24 hr after cocaine 10 mg/kg i.p.) was 40%, the “Decrease in 5-HT release on Day 2 compared to drug effect on Day1” value (5-HT release in NAcc; Subacute, cocaine 10 mg/kg i.p. on Day 1, second half hour of the study) was “approximately 150%” and the “Decrease in DA release on Day 2 compared to drug effect on Day 1” value (DA release in NAcc) was “about 80%”.
